SMILES | melting point
CCCCOc1ccc(C(=O)NC[C@@H](C(=O)NO)N2CCN(S(C)(=O)=O)CC2)cc1 | 130 °C
CC(C)(C)OC(=O)c1nn(-c2ccc(F)cc2F)c2c1C1CCC2C1 (centres undefined) | 97 to 99 °C
COc1ccc2cc([C@H](C)C(=O)OCCNC(=O)OC(C)(C)C)ccc2c1 | 82 to 84 °C
CSc1nc(O)cc(-c2cccc(C#N)c2)n1 | > 220 °C
CN(C)C(=O)[C@@H]1C[C@H]1C(=O)c1c[nH]c2ccc(F)cc12 (relative stereo) | 239 to 241 °C
Cc1c(NC(=O)C(CSC(=O)N(C)C)Cc2ccccc2)cccc1C(=O)O (centres undefined) | 84 to 87 °C
CCc1c2c(nc3cc(F)c(F)cc13)-c1cc3c(c(=O)n1C2)COC(=O)CC3(O)CC (centres undefined) | > 275 °C
Cc1cc(C(O)C(=O)c2ccccc2)c(C)c(C)c1C (centres undefined) | 99 to 101 °C
CC(=O)SC(C(=O)c1cccc(F)c1)C(C)C(=O)N1CCC[C@H]1C(=O)O (some centres undefined) | 158 to 159 °C
CCOc1ccc2c(=S)cc[nH]c2c1 | 171 to 174 °C
O=[N+]([O-])c1ccccc1Oc1cc(Cl)cc(Cl)c1 | 78 to 80 °C
N#CCNc1cn(-c2cccnc2)nc1Cl | 141 to 143 °C
Nc1cccc(NNC=O)c1 | 108 to 113 °C
CCCCC1Oc2ccc(NC(C)=O)cc2C1O (centres undefined) | 134 to 137 °C
O=C(NC1(Cc2ccccc2)CCN(Cc2ccccc2)CC1)N1CCCC1 | 126 °C
O=C(O)c1cc(Oc2c(Cl)cc(Cl)cc2Cl)ccc1[N+](=O)[O-] | 192 °C
CC(C)n1nc(-c2nc(C3=CCN(C)CC3)c(N)nc2-c2ccccc2)ccc1=O | 209 to 211 °C
O=[N+]([O-])c1cccc2c(Br)nccc12 | 187 to 188 °C
CC(=O)OC1CSC(Oc2ccc(C)nc2-c2ccncc2)C(OC(C)=O)C1OC(C)=O (centres undefined) | 140 to 144 °C
COc1cc2c(cc1OC)-c1c(OC)c(OC)cc3c1C(C2)N(C)CC3 (centres undefined) | 112 to 114 °C
CC(C)c1cc(Br)c(C(C)C)cc1S | 72 to 75 °C

SMILES | melting point
CC(C)C(=O)CNC(=O)c1ccc(Cl)cc1 | 118 to 119 °C
O=C(O)C=C(c1cccc(Cl)c1)c1cccc(Cl)c1 | 114 to 115 °C
CCc1c(S(=O)(=O)c2ccc(=O)[nH]n2)oc2ccc(Cl)cc12 | 209 to 210 °C
Cc1ccc(C(=O)NCCN(C)C)cc1-n1c(C)cc(OCc2ccccc2CNC(=O)Nc2cc(C(C)(C)C)nn2-c2ccc(O)c(Cl)c2)c(Cl)c1=O | 181 to 182 °C
CCCCN1CCSC1S(=O)(=O)N=NC(=O)Nc1nc(OC)cc(OC)n1 (centres undefined) | 139 to 140 °C
CCOc1ccc(-c2nc(CCl)cs2)cc1OCC | 81.5 to 82.3 °C
CCCCCCCCCCCCCCCCCCN(C)CC(O)COC(c1ccccc1)(c1ccccc1)c1ccccc1 (centres undefined) | 45 °C
S=[PH2]CCC(c1ccccc1)(c1ccccc1)c1ccccc1 | 88 °C
CCN(CC)C(=O)n1ccc(S(=O)(=O)c2cccc(Cl)c2C)n1 | 76 to 77 °C
COc1ccc(-c2cc(=O)n(CC=Cc3ccc(F)cc3F)nc2-c2ccc(OC)cc2)cc1 | 107 to 108 °C
CCCNS(=O)(=O)c1c(C)cc(C)cc1C | 53 to 54 °C
CCCCOC(=O)c1ccc(OC(=O)C(=O)Oc2ccc(C(=O)OCCCC)cc2)cc1 | 100 to 102 °C
CC1CCCN(C2c3cc4nonc4cc3OC(C)(C)C2O)C1=O (centres undefined) | 146 to 149 °C
CC(C)Cn1c(=O)n(C)c(=O)c2c(CCC(=O)O)c(Cc3ccccc3C(F)(F)F)sc21 | 165 to 167 °C
CC(=O)Nc1ccc(S(=O)c2ccccc2)cc1 (centres undefined) | 135 to 137 °C
CCOCCNc1nc(Cl)nc(Cl)n1 | 77 °C
C=C(c1c(C)n(CC)c2ccccc12)c1c(C)n(CC)c2ccccc12 | 179 to 182 °C
CCOC(=O)C(=Cc1ccccc1)S(=O)(=O)NC(=O)Nc1nc(OC)cc(OC)n1 | 140 to 143 °C
CC1(C)OC(=S)Nc2ccc(-c3cc(F)cc(Br)c3)cc21 | 221 to 222 °C
CS(=O)(=O)Nc1ccc(CCCOCCCCCCNCC(O)c2ccc(O)c(CO)c2)cc1 (centres undefined) | 48 to 50 °C
O=S1NC(Cc2ccc3c(c2)OCO3)=NO1 (centres undefined) | 132 to 133 °C

SMILES | melting point
C=CCOc1ccc2c(=O)c(C)c(-c3ccccc3)oc2c1C(=O)C=Cc1cccc(OC)c1 | 90 to 92 °C
CCC(=O)N1c2ccccc2NC(=O)c2cscc21 | 222 to 224 °C
COC(=O)C(=Cc1cccc(-c2ccc(Cl)cc2)c1)NC(C)=O | 168 °C
CCc1nc2c(N)nc3ccccc3c2n1CCCCNS(C)(=O)=O | 198 to 200 °C
CCOC(=O)c1c(C)cc2c(=O)n(-c3ccccc3Cl)cnc2c1C | 151 to 152 °C
BrCCC=C1c2ccccc2C=Cc2ccccc21 | 88 to 89 °C
COc1cccc2c1C(CN1CC=C(c3c[nH]c4cc(Cl)ccc34)CC1)CC2 (centres undefined) | 177 to 178 °C
CNC(=O)CCC(C)=S | 67 to 70 °C
C[C@@H](c1ccccc1)N1C[C@H]2CCOC(=O)[C@H]2C1 | 86 to 87 °C
COc1ccc(C2(c3ccc(OC)cc3)C(Cl)(Cl)C23CCCCC3)cc1 | 121 to 122 °C
Cc1noc(NS(=O)(=O)c2ccc([N+](=O)[O-])cc2)c1Br | 146 to 149 °C
O=C(Cc1c[nH]c2ccccc12)NC1N=C(c2ccccc2)c2ccccc2NC1=O (racemic) | 264 to 265 °C
CCNC(=O)[C@@H]1C[C@H](SCc2ccc(OC)cc2)CN1 | 67 to 68 °C
Oc1ccc2c(c1)CCCC(c1ccccc1)=C2c1ccc(OCCCCCSCCCC(F)(F)C(F)(F)F)cc1 | 167 to 168 °C
CC(=O)Nc1ccc(C(C)(C)C)cc1CN(C)C1CCCCC1 | 111 to 112 °C
COc1ccc(CN2C(=O)C(C)(c3cc(CO)ccc3Cl)c3cc(Cl)ccc32)c(OC)c1 (centres undefined) | 97 °C
COC(=O)C1(C(F)(F)CCCCOc2ccc(Cl)cc2)CO1 (centres undefined) | 40 to 48 °C
O=C1Nc2ccc(I)cc2C1=NNC(=O)c1ccc(OC(F)(F)F)cc1 | 306 °C
CCC1c2ccccc2-c2sc(Br)cc2N1S(=O)(=O)c1ccc(O)cc1 (centres undefined) | 183 to 185 °C
O=C(O)CCC(=O)NC1CCCCC1 | 168 to 170 °C

Now from value to compound:

melting point | SMILES
225 to 226 °C | CC(C)n1nc(-c2nc(-c3ccccc3)c(N)nc2-c2ccccc2)ccc1=O
184 to 186 °C | CC(=O)N1CCC(c2nc(N)nc3ccccc23)CC1
189 to 190 °C | N#Cc1cc(-c2nc3cncnc3s2)ccc1Sc1cccc(F)c1
237 to 241 °C | Cc1ccccc1CCNC(=O)c1c(Cl)ccc2nc(N3CCC(C(=O)O)CC3)ccc12
131 to 133 °C | CN1C(=O)C2C3CCC(C3)C2(c2ccc(N)cc2)C1=O (centres undefined)
263 °C | CS(=O)(=O)c1cccc(NC(=O)c2cnn3c(C(F)(F)F)cc(-c4ccc(Cl)c(Cl)c4)nc23)c1
294 to 296 °C | O=c1[nH]c2ncc(-c3ccc(-n4cccn4)cc3)nc2n1CCC1CCOCC1
180 to 183 °C | Cn1nnnc1-c1cn(C)c2cc(N3CCCCC3)ccc2c1=O
107 to 108 °C | FC(F)(F)c1ccc(-c2nnc(-c3cccc(C4OCCO4)c3)o2)cc1
154 to 156 °C | Cc1ccc(-c2c(-c3ccc(S(C)(=O)=O)cc3)cnn(CC(F)(F)F)c2=O)cc1
123 to 126 °C | O=C(COc1ccc2c(c1)OCO2)c1ccccc1
158 to 159 °C | CC(=O)Nc1ccc(N2CCC(=O)CC2)cc1
293 to 297 °C | CCCN1NCc2c(C3C(=O)Nc4ccc(Cl)cc43)ncnc21 (centres undefined)
117 to 119 °C | CCc1c(-c2ccccc2)nc(C(C)C)c(C#CI)c1-c1ccc(F)cc1
110 to 115 °C | CN1C(=O)C2C3C=CC(CCC3)C2(c2ccc(Cl)c(Cl)c2)C1=O (centres undefined)
105 to 107 °C | CCOc1nc(NCc2ccco2)nc(Nc2ccc3c(c2)ncn3C)n1
171 to 172 °C | O=C(O)CCc1cnoc1-c1ccc(C(F)(F)F)cc1
208 to 210 °C | O=C(C=Cc1ccccc1)c1ccc(N2CCN(c3ccncc3)CC2)cc1
205 to 210 °C | O=C(O)Cc1ccc(-c2nc3cccc(Cl)c3o2)cc1

melting point | SMILES
120 °C | Cc1cccc(-c2nc3ccccn3c2-c2ccnc(-c3ccc(OC(F)(F)F)cc3)c2)n1
207 to 210 °C | Cc1ccc(C(=O)N2CCc3nnc(NN)cc3C2)cc1
117 to 119 °C | O=C(NC(=O)C(c1ccccc1)c1ccccc1)OC1CCCCC1
203 to 205 °C | Cc1nc2ccc(C(=O)NS(=O)(=O)c3ccccc3)nc2n1Cc1ccc(COc2ccccc2)cc1Cl
210 to 212 °C | CN(C)c1ccc(NC(=O)NC2CCC2)c(C(=O)NCC2CCN(C(c3ccccc3)c3ccccc3)CC2)c1
214 to 216 °C | COc1cc(N2CCC(N3CCN(C)CC3)CC2)ccc1Nc1ncc2ccc(-c3cccc(S(=O)(=O)NC(C)(C)C)c3)n2n1
203 to 205 °C | Cc1ncc(N2N=C(c3ccc([N+](=O)[O-])cc3)c3cc4c(cc3CC2C)OCO4)o1 (centres undefined)
165 to 167 °C | CC(C)(C)c1ccc(-c2nc(COc3cccc4cc(NS(=O)(=O)C(F)(F)F)ccc34)co2)cc1
149 °C | COc1cc(Nc2nccc(Nc3ccc(CC(=O)OCc4ccccc4)cc3)n2)cc(OC)c1OC
106 to 107 °C | O=C(c1ccccc1)c1ccc2c(c1)CC(C(=O)NCCO)C2 (centres undefined)
113 to 115 °C | COCCc1ccc(OCC(O)CN2CCC(N3CCCNC3=O)CC2)cc1 (centres undefined)
69 to 72 °C | COC(=O)CCCCCCCCN1C(=O)C(c2ccccc2)N(c2ccccc2)C1=O (centres undefined)
206 to 208 °C | O=C(Nc1nccs1)c1nc(-c2cccc3ccccc23)[nH]c1-c1ccc(Cl)cc1
149 to 151 °C | COc1ccc2cc(OCc3ccccc3)c(N)cc2c1
195 to 197 °C | CS(=O)(=O)c1ccc(-c2cnn(C3C4CC5CC(C4)CC3C5)c(=O)c2-c2ccc(F)cc2)cc1 (centres undefined)
196 to 198 °C | Oc1ccc(C2=NCCCO2)cc1
180 to 183 °C | CC1(C)CC(=O)c2c(Nc3ccccn3)cn(-c3ccccn3)c2C1
181 to 182 °C | CN(C)c1nc(N)ncc1Cc1ccccc1
